Assay results published in patent US20190136188A1, “4HPR AND ITS USE IN THE CULTURING OF HEMATOPOIETIC STEM CELLS” (UNIVERSITY HEALTH NETWORK, priority 2016, published 2019).

Legend:
[1] = test system: lin- CB cells; test: RNA-sequencing gene set enrichment; format: cell-based, human; details: 4HPR vs Ctrl
Source text: RNA from 3 pools of Lin− CB cells treated with vehicle control, 4HPR, UM171+SR1 or the triple combination of 4HPR+UM171+SR1 for 2 days were subjected to RNA-sequencing without amplification on the Illumina HiSeq 2500. (A) Functional enrichment map of gene sets enriched (red) by 4HPR treatment including or enriched by Ctrl treatment (blue) at day 2.
To elucidate the genetic pathways enriched by 4HPR treatment in human CB that may contribute to preserving HSC function in ex vivo expansion alone or in combination with UM171 and SR1, we performed RNA-sequencing of 3 pools of lin-CB at day 2 and day 4 following treatment with all four treatment groups. To avoid amplification bias, RNA-seq was performed on samples without amplification. […] The latter is known to be regulated by autophagy (Singh, Nature, 2009).

[2] = test system: HSPC subpopulations including HSC, MPP and GMP; test: BrdU incorporation (proliferation rate); format: cell-based, human; details: 2 uM 4HPR, day 3 post-treatment
[3] = test system: DEGS1; details: prolong exposure at micromolar concentrations in vitro; cited from earlier work
[4] = test system: sorted HSC, MPP or GMP; test: Cell cycle analysis with Ki67 and Hoescht by flow cytometry; format: cell-based, human; details: 2 uM 4HPR, day 2 or day 3
[5] = test system: sorted HSC, MPP or GMP; test: Colony forming assay (CFC) in methylcellulose; format: cell-based, human
Procedure: (A) Dose response of varying [4HPR] in CB at day 3 post-treatment showing 2 uM 4HPR gives the relative half maximal number of viable cells compared to control. All experiments following are at this 4HPR concentration unless otherwise indicated. […] (C) LC/MS was used to profile the ceramide (Cer), dihydroceramide (dhCer), sphingosine (sph), dihydrosphingosine (dhSph), S1P and dihydro-S1P (dhS1P) levels in lin− CB cells cultured for 8 days with control or 4HPR (n=2). […] (D) HSC, MPP, or GMP were sorted into methylcellulose for CFC assays in the presence of control or 4HPR and colonies were blindly scored following 10-11 days for (D) colonies/100 cells and ((E) colony distribution are shown (n=7). (F) Flow cytometry for erythroid (GlyA+) and monocytic (CD14+) markers in live cells from pooled CFC colonies were scored (n=6). (F) Relative number of colonies from CFC assays comparing the effect of 4HPR or ATRA (n=3) on sorted HSC, MPP or GMP. […]
(A) Representative flow cytometry analysis of the primitive hierarchy within the CD34+ fraction of day 8 cultured lin− CB cells after the indicated treatments for CD90 and CD45RA, n=4. B) The distribution of cultured CD34+CD90+CD45RA− (cHSC), CD34+CD90−CD45RA− (cMPP), and […] for the indicated conditions at day 8 of ex vivo culture following CD34 enrichment. Statistical significance assayed through unpaired t-test relative to vehicle control (Ctrl). The relative number of colonies resulting from (C) HSC or (D) MPP grown in methylcellulose CFC assays in the presence of vehicle control (−) or the indicated combination of 2 uM 4HPR, or 35 nM UM171 or 0.5 uM SR1 at 10 days. Statistical significance is calculated via unpaired t-test relative to ctrl (black) or to the presence of absence of 4HPR treatment for UM171 or SR1.
However, the functional consequence of 4HPR treatment on human cord blood primitive cells is unknown. A dose titration of 4HPR was performed on lineage-depleted CB (lin-CB) cells and 2 uM was calculated to give half maximal cell viability at 3 days post-treatment compared to vehicle control (ctrl), a concentration reported in cell lines to antagonize DEGS1 enzymatic function, and used for all subsequent experiments unless otherwise indicated (FIG. 1A). […] Next, we utilized the colony forming assay (CFC) for in vitro progenitor function to determine if 4HPR treatment alters functional output from isolated populations of CB HSPC. […] This is unsurprising as retinoic acid signaling is a potent differentiation signal in hematopoietic cells. Thus, 4HPR inhibition of sphingolipid homeostasis selectively enhances cloning efficiency in human HSC.
Given the CD34 compartment where functional HSC should reside following ex vivo expansion is critical to blood production, we asked if there were immunophenotypic alterations following 4HPR treatment. StemRegenin-1 (SR1) or UM171 are two molecules whose action on CB has been reported to expand CD34+ cells dramatically and lead to increase reconstitution in xenotransplantation (Fares, et al Science, 2014: Boitano, Science, 2010). We sought to ask if limiting CD34+ expansion with 4HPR treatment is synergistic with these known agonists of CB ex vivo expansion. Lin− CB were cultured with these 3 small molecules alone or in combination for 8 days and the CD34 compartment was isolated and analyzed by flow cytometry further with CD90 and CD45RA to look at immunophenotypic cultured HSC (cHSC), MPP (cMPP) and committed progenitors (cProg). These populations were sorted from lin-CB at […] following expansion and transplanted into NSG mice for 16 weeks to ascertain that cProg cells are committed progenitors, while cHSC and cMPP retain multipotency following culture (FIG. 8A, B). […]

With `CC1=C(/C=C/C(C)=C/C=C/C(C)=C/C(=O)Nc2ccc(O)cc2)C(C)(C)CCC1` [4HPR, N-(4hydroxyphenyl)retinamide] the “ER stress and UPR gene sets” value [1] was “upregulates ER stress and UPR gene sets”, the autophagy gene sets [1] was “enriched for autophagy gene sets including mitophagy” and the “ceramide/sphingolipid biosynthesis gene sets” value [1] was “enrichment of ceramide/sphingolipid biosynthesis gene sets”. The cholesterol/sterol biosynthetic pathways [1] was “decrease in cholesterol/sterol biosythetic pathways”, the “proliferation rate by BrdU incorporation” value [2] was “decreased proliferation rate” and the DEGS1 activity [3] was “irreversibly inhibits DEGS1 activity”. For the same compound, the “cell cycle transit (Ki67 and Hoescht)” value [4] was “no significant difference between ctrl and 4HPR”, the “relative cloning efficiency from HSC” value ([5]; 2 uM 4HPR in combination with either UM171 or SR1, to levels similar to 4HPR alone) was “increased relative cloning efficiency from HSC” and the “colony distribution (colony type)” value ([5]; HSC and MPP samples, 2 uM 4HPR) was “more likely to be granulocyte-macrophage (GM) colonies”. For the same compound, the “increase of colony output over control treatment” value ([5]; HSC, 2 uM 4HPR, colonies scored after 10-11 days) was 50%, the “increase of colony output over control treatment” value ([5]; MPP or GMP, 2 uM 4HPR) was “but not MPP or GMP” and the “myeloid (CD14) and erythroid (GlyA) output of cells from CFC assays” value ([5]; flow cytometry of pooled CFC colonies, 2 uM 4HPR) was “enhances myeloid output at the expense of erythroid differentiation”.
